The text below walks through data of PubChem BioAssay (NCI).

Several values for one entry are separate records, joined by “and”; a condition that tells them apart may be missing. Identical values can stand only once.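 Briefly, cells in 96-well plates were exposed to five compound concentrations for 48 h, and endpoints were estimated by linear interpolation. GI50 is the concentration that inhibits growth by half. TGI: concentration producing complete growth inhibition.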

Test in all cases: DTP human tumour cell line panel, 48 h
For test [1], the system named is BT-549 breast.
Test [2] concerns MCF7 breast.
Test [3] concerns MDA-MB-231 breast.
The subject of test [4] is MDA-MB-435.
The subject of test [5] is NCI/ADR-RES ovarian.
Test [6] relates to PC-3 prostate.

For the compound `Cc1cccc2cc3ccc4ccccc4c3cc12`, the TGI in test [1] is greater than 100 µM; in test [2] it was 98 µM; in test [3], greater than 100 µM; in test [4], greater than 100 µM; in test [5] it was greater than 100 µM; in test [6] it was greater than 100 µM.

In the case of `COc1ccc(Cn2cc3c(c2-c2ccccc2)CCc2cncnc2-3)cc1`, the GI50 is 4.1 µM in test [1]; 4.66 µM in test [2]; 5.12 µM in test [3]; 2.49 µM in test [4]; 3.99 µM in test [5]; 8.71 µM in test [6]. Besides, the TGI turned out to be 14.7 µM in test [1]; 18.9 µM in test [2]; 18.3 µM in test [3]; 11.8 µM in test [4]; 19.8 µM in test [5]; 31.1 µM in test [6].

On to `CC(=O)C1C(=O)C(=O)N(c2ccc([N+](=O)[O-])cc2Cl)C1=O` (centres undefined), for which the TGI in test [1], in test [2], in test [3], in test [4], in test [5] and in test [6] was greater than 100 µM throughout.

Turning to `c1cc(C2N3CCCN2CC3)ccn1` (centres undefined), the TGI in test [1] was greater than 100 µM; in test [2], greater than 100 µM; in test [3], greater than 100 µM; in test [4], 89.2 µM; in test [5] it was greater than 100 µM; in test [6], greater than 100 µM.

For the compound `O=C(O)CCc1nc(-c2ccccc2)c(-c2ccccc2)o1`, the TGI in test [1], in test [2], in test [3], in test [4], in test [5] and in test [6] was greater than 100 µM in each case.

`Cc1ccc(C(=O)Nc2ccccc2C(=O)N/N=C(\c2ccccc2)c2ccccn2)cc1`: the GI50 in test [1] was 0.517 µM; in test [2] it was 0.359 µM; in test [3] it was 0.517 µM; in test [4] it was 0.534 µM; in test [5] it was 0.2 µM; in test [6], 1.1 µM. The TGI in test [1], in test [2], in test [3], in test [4], in test [5] and in test [6] was greater than 100 µM throughout.

For the compound `c1cc(-c2cnn3nc(N4CCOCC4)ccc23)nc(NC2CC2)n1`, the GI50 in test [1] is 8.15 µM; in test [2] it was 5.38 µM; in test [3], 10.2 µM; in test [4] it was 9.94 µM; in test [5], 8.25 µM; in test [6], 7.87 µM. Moreover, the TGI in test [1], in test [2], in test [3], in test [4], in test [5] and in test [6] was greater than 25 µM in each case.

For `C#CCOc1cccc(Nc2ncnc3c2ncn3C2CCN(C(=O)CCl)C2)c1` (centres undefined), the GI50 was 12.1 µM in test [1]; 18.7 µM in test [2]; 18.6 µM in test [3]; 20.4 µM in test [4]; 41.3 µM in test [5]; 22.6 µM in test [6]. Moreover, the TGI in test [1] was 26.6 µM; in test [2], 41.4 µM; in test [3] it was 35.9 µM; in test [4], 53.5 µM; in test [5], greater than 100 µM; in test [6], 53 µM.

In the case of `COc1cc2c(cc1-c1c(C)noc1C)ncc1[nH]c(=O)n([C@H](C)c3ccccn3)c12`, the GI50 in test [1] is 13.1 µM; in test [2] it was 0.195 µM; in test [3] it was 0.528 µM; in test [4] it was 0.474 µM; in test [5], 10.9 µM; in test [6] it was 2.72 µM. Besides, the TGI in test [1], in test [2], in test [3], in test [4], in test [5] and in test [6] was greater than 100 µM in each case.

For `Cn1c2cc(Cl)ccc2c2ccc3c(c21)C(=O)C=CC3=O`, the TGI in test [1] was greater than 63.8 µM; in test [2], 50.6 µM; in test [3], greater than 68.6 µM; in test [4] it was greater than 60.1 µM; in test [5] it was greater than 89.7 µM; in test [6], greater than 82 µM.

Consider `C/C=C/COc1cc(NC(=S)c2ccoc2C)ccc1OC`, for which the TGI in test [1], in test [2], in test [3], in test [4], in test [5] and in test [6] was greater than 100 µM each time.

As to `OCCCCC#Cc1ccccc1C#Cc1cccs1`, the GI50 in test [1] is 12.4 µM; in test [2], 1.88 µM; in test [3] it was 10.6 µM; in test [4], 16.6 µM; in test [5], 17.7 µM; in test [6], 16.2 µM. The TGI in test [1] was determined as 25.4 µM; in test [2] it was 29.1 µM; in test [3], 23.3 µM; in test [4], 30.8 µM; in test [5], 34.5 µM; in test [6], 30.8 µM.

Take `CCCCCC/C=C\CCCCCCCCCc1c(O)c(OC)cc(O)c1CN(C)C`: the concentration for total growth inhibition (TGI) worked out at 21 µM in test [1]; 7 µM in test [2]; 31.6 µM in test [3]; 20 µM in test [4]; 37 µM in test [5]; 14.5 µM in test [6].

`C=C(CN(CCN1CCOCC1)CC(=C)c1ccc(C(=O)Nc2ccccc2N)cc1)c1ccc(C(=O)Nc2ccccc2N)cc1`: the GI50 in test [1] is 8.56 µM; in test [2] it was 11 µM; in test [3] it was 3.05 µM; in test [4], 8.67 µM; in test [5], 1.31 µM; in test [6], 15 µM. For the same compound, the concentration for total growth inhibition (TGI) was 21.2 µM in test [1]; greater than 50 µM in test [2]; 11.2 µM in test [3]; 28.5 µM in test [4]; 4.92 µM in test [5]; greater than 50 µM in test [6].

`Cc1[nH]ccc2cc3nc4ccccc4c3cc12`: the GI50 in test [1] is 2.74 µM; in test [2], 1.34 µM; in test [3] it was 2 µM; in test [4], 2.89 µM; in test [5] it was 1.8 µM; in test [6] it was 2.46 µM. Also, the TGI in test [1] stood at 13.3 µM; in test [2] it was 5.63 µM; in test [3], 8.24 µM; in test [4], 12.7 µM; in test [5], 11.9 µM; in test [6], 11.7 µM.

As for `CCN1CCN(c2cc(C)nc(NCc3cc(Nc4ccnc5cc(Cl)ccc45)ccc3F)n2)CC1`, the GI50 in test [1] was 5.36 µM; in test [2], 0.302 µM; in test [3], 2.02 µM; in test [4], 2.22 µM; in test [5] it was 5.03 µM; in test [6], 5.02 µM. Further, the TGI is 21.8 µM in test [1]; 16.9 µM in test [2]; 5.99 µM in test [3]; 5.99 µM in test [4]; greater than 100 µM in test [5]; 69.5 µM in test [6].

Take `CCCCCCCCCCC(CN(CC)CC)C(O)c1ccccc1` (centres undefined): the GI50 in test [1] was 2.02 µM; in test [2], 1.63 µM; in test [3], 1.72 µM; in test [4], 1.72 µM; in test [5], 1.9 µM; in test [6], 1.62 µM. For the same compound, the TGI in test [1] came out at 4.21 µM; in test [2] it was 3.15 µM; in test [3], 3.43 µM; in test [4], 3.23 µM; in test [5], 3.7 µM; in test [6] it was 3.13 µM.

For `COC(=O)c1cccc2c1Oc1ccccc1S2`, the TGI in test [1], in test [2], in test [3], in test [4], in test [5] and in test [6] was greater than 100 µM in each case.

Regarding `NC(N)=N/N=C(/c1ccccc1)c1ccc(O)cc1O`, the TGI in test [1], in test [2], in test [3], in test [4], in test [5] and in test [6] was greater than 100 µM throughout.

Consider `O=C(Nc1ccc([N+](=O)[O-])cc1)c1cc2ccccc2cc1O`, for which the GI50 is 0.444 µM in test [1]; 1.32 µM in test [2]; 0.413 µM in test [3]; 0.321 µM in test [4]; 0.314 µM in test [5]; 0.937 µM in test [6]. Also, the concentration for total growth inhibition (TGI) in test [1] came to 2.43 µM; in test [2], 11.3 µM; in test [3], 1.89 µM; in test [4], 1.64 µM; in test [5] it was 3.13 µM; in test [6], 7.88 µM.

In the case of `C[C@@H]1CCC2[C@@H](C)[C@H](OC(=O)CCC(=O)NCCNC(=O)Cc3cc(=O)oc4cc(N(C)C)ccc34)O[C@@H]3O[C@]4(C)CC[C@@H]1C23OO4` (some centres undefined), the GI50 in test [1] was 3.07 µM; in test [2] it was 2.92 µM; in test [3], 22.6 µM; in test [4], 0.472 µM; in test [5], 1.19 µM; in test [6], 0.189 µM. The TGI in test [1] was greater than 100 µM; in test [2] it was 28.2 µM; in test [3], greater than 100 µM; in test [4], 16.8 µM; in test [5], 22.9 µM; in test [6], greater than 100 µM.

On to `CC1(C)CC(O)CCCCCCOc2c(CN)cccc2NC(=O)c2nc(cnc2N)-c2ccc(cc2)S1(=O)=O` (centres undefined), for which the GI50 in test [1] is 1.25 µM; in test [2], less than 0.01 µM; in test [3], 1.85 µM; in test [4], 0.558 µM; in test [5] it was 2.83 µM; in test [6] it was 0.543 µM. Besides, the TGI in test [1] is 2.85 µM; in test [2], 1.81 µM; in test [3] it was 4.48 µM; in test [4], 2.16 µM; in test [5] it was 13.4 µM; in test [6], 3.67 µM.

For the compound `ClC1=C(Cl)C(Cl)=C(Cl)C1=Cc1ccc(Cl)cc1Cl`, the GI50 in test [1] is 0.277 µM; in test [2], 0.319 µM; in test [3] it was 0.29 µM; in test [4], 0.521 µM; in test [5], 0.276 µM; in test [6] it was 0.393 µM. Also, the TGI in test [1] was 0.809 µM; in test [2] it was greater than 100 µM; in test [3] it was 1.15 µM; in test [4], 2.05 µM; in test [5], 0.926 µM; in test [6], 1.64 µM.

Take `O=C(Nn1c2c(sc1=NC1CC1)C(=O)c1ccccc1C2=O)c1cc2ccc1CCc1ccc(cc1)CC2`: the GI50 in test [1] was 1.5 µM; in test [2], 1.42 µM; in test [3] it was 1.37 µM; in test [4], 1.76 µM; in test [5], 1.93 µM; in test [6] it was 1.62 µM. For the same compound, the TGI in test [1] was 2.91 µM; in test [2] it was 3.29 µM; in test [3], 9.82 µM; in test [4] it was 3.23 µM; in test [5], 6.77 µM; in test [6], 10.7 µM.

As to `CN1CCN(c2ccc([N+](=O)[O-])c3no[n+]([O-])c23)CC1`, the GI50 in test [1] was 0.841 µM; in test [2], 0.141 µM; in test [4] it was 0.642 µM; in test [5] it was 0.286 µM; in test [6], 0.412 µM. In addition, the TGI in test [1] is 4.64 µM and 2.12 µM; in test [2], 1.79 µM and 0.985 µM; in test [3], 3.46 µM and 3.65 µM; in test [4], 2.51 µM and 1.99 µM; in test [5], 2.46 µM and 1.47 µM; in test [6] it was 2.21 µM and 1.94 µM.

As for `CN(C)CCC(=O)NCc1c2nc3ccccc3nc2n2ccccc12`, the GI50 is 23.3 µM in test [1]; 17.4 µM in test [2]; 24.7 µM in test [3]; 67.8 µM in test [4]; 47.2 µM in test [5]; 33.5 µM in test [6]. Moreover, the TGI in test [1] was 60.8 µM; in test [2] it was greater than 100 µM; in test [3], greater than 100 µM; in test [4], greater than 100 µM; in test [5], greater than 100 µM; in test [6] it was greater than 100 µM.

In the case of `Cc1cc(S(=O)(=O)Nc2nc3ccsc3c(=O)n2Cc2ccccc2)c(S)cc1Cl`, the GI50 in test [1] was 28 µM; in test [2], 34.4 µM; in test [3], 30.3 µM; in test [4], 29.3 µM; in test [5] it was 67.8 µM; in test [6], 40.4 µM. The TGI in test [1] was 89.8 µM; in test [2], greater than 100 µM; in test [3], 72.5 µM; in test [4], 91.6 µM; in test [5], greater than 100 µM; in test [6], greater than 100 µM.
